{
  "source": "ChEMBL document CHEMBL4251700",
  "about": "“Novel Staphyloxanthin Inhibitors with Improved Potency against Multidrug Resistant Staphylococcus aureus” (ACS Med Chem Lett, 2018)",
  "key": {"[1]": {"biological_target": "T1, 4,4'-diapophytoene desaturase (4,4'-diaponeurosporene-forming) (Staphylococcus aureus (strain Newman), UniProt O07855)", "T1 sequence (O07855 whole entry)": "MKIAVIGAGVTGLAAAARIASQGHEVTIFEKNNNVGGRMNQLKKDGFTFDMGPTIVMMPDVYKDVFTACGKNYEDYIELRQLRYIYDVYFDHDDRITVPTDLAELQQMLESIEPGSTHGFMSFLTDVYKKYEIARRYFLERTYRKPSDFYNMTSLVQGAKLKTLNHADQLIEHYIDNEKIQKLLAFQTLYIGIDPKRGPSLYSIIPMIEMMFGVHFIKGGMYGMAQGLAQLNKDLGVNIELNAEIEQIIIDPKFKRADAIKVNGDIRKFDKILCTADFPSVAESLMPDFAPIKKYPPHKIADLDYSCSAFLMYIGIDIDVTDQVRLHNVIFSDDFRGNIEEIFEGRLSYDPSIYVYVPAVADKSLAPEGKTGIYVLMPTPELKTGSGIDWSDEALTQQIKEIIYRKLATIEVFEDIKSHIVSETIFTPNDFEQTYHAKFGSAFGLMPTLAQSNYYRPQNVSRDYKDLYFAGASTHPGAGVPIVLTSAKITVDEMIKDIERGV", "assay": "Inhibition of Staphylococcus aureus Newman […]-tagged CrtN expressed in Escherichia coli BL21(DE3))/pET28a::CrtN assessed as reduction in staphyloxanthin levels using diapophytoene as substrate after overnight incubation", "set-up": "species or system Staphylococcus aureus subsp. aureus str. Newman"}, "[2]": {"biological_target": "T2, 4,4'-diapophytoene desaturase (4,4'-diaponeurosporene-forming) (Staphylococcus aureus (strain MW2), UniProt Q8NUQ6)", "T2 sequence (Q8NUQ6 whole entry)": "T1 sequence (O07855 whole entry) with R500Q", "assay": "Inhibition of CrtN in methicillin-resistant Staphylococcus aureus USA400 MW2 assessed as reduction in staphyloxanthin levels after 48 hrs by spectrophotometric method-based pigment inhibition assay", "set-up": "species or system Staphylococcus aureus subsp. aureus MW2"}, "Staphylococcus aureus [3]": {"test_system": "Staphylococcus aureus", "assay": "Antibacterial activity against linezolid-resistant Staphylococcus aureus NRS271 infected in BALB/c mouse assessed as reduction of bacterial burden in heart at 0.4 mg, ip bid for 3.5 days administered 6 hrs post bacterial infection measured 84 hrs post infection", "format": "functional", "set-up": "scale not given: the % may be the effect or the level left"}, "Trichophyton verrucosum": {"test_system": "Trichophyton verrucosum", "assay": "Antifungal activity against Trichophyton verrucosum after 7 days", "format": "functional, organism-based"}, "Staphylococcus aureus [4]": {"test_system": "Staphylococcus aureus", "assay": "Antibacterial activity against Staphylococcus aureus Newman infected in BALB/c mouse assessed as reduction of bacterial burden in heart at 0.4 mg, ip bid administered at 12 hrs prior to bacterial infection dosed at 12 intervals for 4.5 days relative to control", "format": "functional", "set-up": "scale not given: the % may be the effect or the level left"}, "Staphylococcus aureus [5]": {"test_system": "Staphylococcus aureus", "assay": "Induction of sensitization to immune clearance towards Staphylococcus aureus USA400 MW2 infected in human whole blood assessed as bacterial killing by measuring bacterial survival after 6 hrs by serial dilution method relative to control", "format": "functional"}, "[6]": {"biological_target": "T1, 4,4'-diapophytoene desaturase (4,4'-diaponeurosporene-forming)", "assay": "Inhibition of CrtN in Staphylococcus aureus Newman assessed as reduction in staphyloxanthin levels after 48 hrs by spectrophotometric method-based pigment inhibition assay", "set-up": "species or system Staphylococcus aureus subsp. aureus str. Newman"}, "Staphylococcus aureus [7]": {"test_system": "Staphylococcus aureus", "assay": "Antibacterial activity against linezolid-resistant Staphylococcus aureus NRS271 infected in BALB/c mouse assessed as reduction of bacterial burden in heart at 0.1 mg, ip bid administered at 24 hrs prior to bacterial infection dosed at 12 intervals for 4.5 days"}, "[8]": {"biological_target": "T3, 4,4'-diapophytoene desaturase (4,4'-diaponeurosporene-forming) (Staphylococcus aureus (strain Mu50 / ATCC 700699), UniProt Q99R76)", "T3 sequence (Q99R76 whole entry)": "T1 sequence (O07855 whole entry)", "assay": "Inhibition of CrtN in vancomycin-intermediate Staphylococcus aureus Mu50 assessed as reduction in staphyloxanthin levels after 48 hrs by spectrophotometric method-based pigment inhibition assay", "set-up": "species or system Staphylococcus aureus subsp. aureus Mu50"}, "[9]": {"assay": "Cytotoxicity against HEK293T cells after 72 hrs by CCK8 assay", "format": "cell-based, HEK-293T", "conditions": "human"}, "Staphylococcus aureus [10]": {"test_system": "Staphylococcus aureus", "assay": "Antibacterial activity against vancomycin-intermediate Staphylococcus aureus Mu50 infected in BALB/c mouse assessed as reduction of bacterial burden in heart at 0.1 mg, ip bid for 3.5 days administered 6 hrs post bacterial infection measured 84 hrs post infection relative to control", "format": "functional", "set-up": "scale not given: the % may be the effect or the level left"}, "Staphylococcus aureus [11]": {"test_system": "Staphylococcus aureus", "assay": "Growth inhibition of methicillin-resistant Staphylococcus aureus USA300 LAC at 0.2 mM incubated overnight measured at 30 mins interval", "format": "organism-based", "conditions": "0.5 h, 200 µM"}, "[12]": {"biological_target": "T4, 4,4'-diapophytoene desaturase (4,4'-diaponeurosporene-forming) (Staphylococcus aureus (strain MW2)) (UniProt Q8NUQ6)", "T4 sequence (whole entry)": "T1 sequence (O07855 whole entry) with R500Q", "assay": "Inhibition of CrtN in Staphylococcus aureus USA400 MW2 assessed as H2O2-induced bacterial death by measuring reduction in bacterial survival at 1 uM preincubated for 24 hrs followed by H2O2 addition measured after 30 mins by serial dilution method", "conditions": "Staphylococcus aureus subsp. aureus MW2"}, "Staphylococcus aureus [13]": {"test_system": "Staphylococcus aureus", "assay": "Antibacterial activity against linezolid-resistant Staphylococcus aureus NRS271 infected in BALB/c mouse assessed as reduction of bacterial burden in heart at 0.1 mg, ip bid for 3.5 days administered 6 hrs post bacterial infection measured 84 hrs post infection", "format": "functional", "set-up": "scale not given: the % may be the effect or the level left"}, "[14]": {"biological_target": "T1, 4,4'-diapophytoene desaturase (4,4'-diaponeurosporene-forming)", "assay": "Inhibition of CrtN in linezolid-resistant Staphylococcus aureus NRS271 assessed as reduction in staphyloxanthin levels after 48 hrs by spectrophotometric method-based pigment inhibition assay"}, "[15]": {"biological_target": "T2, 4,4'-diapophytoene desaturase (4,4'-diaponeurosporene-forming)", "assay": "Inhibition of CrtN in methicillin-resistant Staphylococcus aureus LAC USA300 assessed as reduction in staphyloxanthin levels after 48 hrs by spectrophotometric method-based pigment inhibition assay", "set-up": "species or system Staphylococcus aureus subsp. aureus USA300"}, "Staphylococcus aureus [16]": {"test_system": "Staphylococcus aureus", "assay": "Induction of sensitization to immune clearance towards Staphylococcus aureus Mu50 infected in human whole blood assessed as bacterial killing by measuring bacterial survival after 6 hrs by serial dilution method relative to control", "format": "functional"}, "Staphylococcus aureus [17]": {"test_system": "Staphylococcus aureus", "assay": "Antibacterial activity against linezolid-resistant Staphylococcus aureus NRS271 infected in BALB/c mouse assessed as reduction of bacterial burden in heart at 0.4 mg, ip bid administered at 24 hrs prior to bacterial infection dosed at 12 intervals for 4.5 days"}, "Staphylococcus aureus [18]": {"test_system": "Staphylococcus aureus", "assay": "Antibacterial activity against vancomycin-intermediate Staphylococcus aureus Mu50 infected in BALB/c mouse assessed as reduction of bacterial burden in liver at 0.4 mg, ip bid administered at 12 hrs prior to bacterial infection dosed at 12 intervals for 4.5 days", "format": "functional, organism-based"}, "Staphylococcus aureus [19]": {"test_system": "Staphylococcus aureus", "assay": "Antibacterial activity against vancomycin-intermediate Staphylococcus aureus Mu50 infected in BALB/c mouse assessed as reduction of bacterial burden in liver at 0.1 mg, ip bid for 3.5 days administered 6 hrs post bacterial infection measured 84 hrs post infection", "format": "functional, organism-based"}},
  "note": "Positions count from the first letter of the chain named. The source made the active and inactive calls. No cut-off for these calls is given here.",
  "data": [
    {"smiles": "CN(C/C=C/C=C/c1ccc(C(F)(F)F)cc1)Cc1ccc2c(c1)OCCO2.Cl", "values": [
      {"measurement": "IC50", "setting": "[1]", "value": 270, "unit": "nM"},
      {"measurement": "IC50", "setting": "[2]", "value": 6.5, "unit": "nM"},
      {"measurement": "Activity", "setting": "Staphylococcus aureus [3]", "value": ">90", "unit": "%"},
      {"measurement": "Activity", "setting": "Trichophyton verrucosum", "value": "inactive"},
      {"measurement": "Activity", "setting": "Staphylococcus aureus [4]", "value": 89.01, "unit": "%"},
      {"measurement": "Survival", "setting": "Staphylococcus aureus [5]", "value": "<0.5", "unit": "%"},
      {"measurement": "IC50", "setting": "[6]", "value": 2.2, "unit": "nM"},
      {"measurement": "Activity", "setting": "Staphylococcus aureus [7]", "value": "Active"},
      {"measurement": "IC50", "setting": "[8]", "value": "< 0.1", "unit": "nM"},
      {"measurement": "CC50 at 72 h", "setting": "[9]", "value": 50300, "unit": "nM"},
      {"measurement": "Activity", "setting": "Staphylococcus aureus [10]", "value": 99, "unit": "%"},
      {"measurement": "growth inhibition (GI)", "setting": "Staphylococcus aureus [11]", "value": "Non-Toxic"},
      {"measurement": "inhibition", "setting": "[12]", "value": "Active"},
      {"measurement": "Activity", "setting": "Staphylococcus aureus [13]", "value": ">90", "unit": "%"},
      {"measurement": "IC50", "setting": "[14]", "value": 0.6, "unit": "nM"},
      {"measurement": "IC50", "setting": "[15]", "value": 5.5, "unit": "nM"},
      {"measurement": "Survival", "setting": "Staphylococcus aureus [16]", "value": "<0.5", "unit": "%"},
      {"measurement": "Activity", "setting": "Staphylococcus aureus [17]", "value": "Active"},
      {"measurement": "Activity", "setting": "Staphylococcus aureus [18]", "value": "Active"},
      {"measurement": "Activity", "setting": "Staphylococcus aureus [19]", "value": "Active"}
    ]}
  ]
}
